Measured values: ChEMBL document CHEMBL5604063, “ASAP - DENV-2 NS2B-NS3 protease fluorescence dose response” (2024)
Several values for one entry are separate records, joined by “and”; a condition that tells them apart may be missing. Equal values may be shown once.

Columns and labels:
[1] = target: T1, Genome polyprotein (dengue virus type 2, UniProt P29990); type: functional, Thailand/16681/1984
[2] = target: T1, Genome polyprotein; type: functional, Thailand/16681/1984; remark: listed apart in the source

T1 sequence (P29990 1346-1475 limits assumed): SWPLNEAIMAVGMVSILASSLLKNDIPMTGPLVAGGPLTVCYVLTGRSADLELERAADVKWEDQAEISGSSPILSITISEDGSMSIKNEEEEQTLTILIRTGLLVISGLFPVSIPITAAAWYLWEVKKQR
T1 sequence (P29990 1476-2093 limits assumed): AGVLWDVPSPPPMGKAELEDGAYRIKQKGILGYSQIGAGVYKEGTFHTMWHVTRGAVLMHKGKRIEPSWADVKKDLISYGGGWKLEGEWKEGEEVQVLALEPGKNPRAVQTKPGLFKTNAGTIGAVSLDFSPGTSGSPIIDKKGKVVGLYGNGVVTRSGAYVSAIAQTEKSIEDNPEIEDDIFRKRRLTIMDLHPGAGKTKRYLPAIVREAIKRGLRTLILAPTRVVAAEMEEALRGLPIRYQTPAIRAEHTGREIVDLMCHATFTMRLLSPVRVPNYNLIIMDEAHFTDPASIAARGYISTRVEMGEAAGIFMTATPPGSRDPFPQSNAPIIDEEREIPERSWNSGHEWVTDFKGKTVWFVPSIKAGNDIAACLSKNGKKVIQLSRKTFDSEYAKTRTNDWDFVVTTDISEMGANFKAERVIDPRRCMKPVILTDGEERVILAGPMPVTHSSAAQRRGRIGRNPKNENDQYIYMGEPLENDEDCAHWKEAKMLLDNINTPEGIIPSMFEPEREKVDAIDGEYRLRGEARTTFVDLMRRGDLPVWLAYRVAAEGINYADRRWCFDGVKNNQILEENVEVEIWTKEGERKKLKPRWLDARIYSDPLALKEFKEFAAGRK

| SMILES | IC50 [1] [µM] | IC50 [2] |
| --- | --- | --- |
| O=C(Nc1ccc2c(c1)CNC2)c1cc(Cl)nc2[nH]ccc12 | > 100 | > 99.5 µM |
| Cc1nc2c(C(=O)Nc3ccc4c(c3)CNC4)cc(Cl)cc2[nH]1 | 80.9 | > 99.5 µM |
| N#C[C@H](Nc1ccc2c(c1)CNC2)c1cncc2ccccc12 | > 100 | > 99.5 µM |
| O=C(Nc1ccc2c(c1)CNC2)c1ccc2nc(O)sc2c1 | > 100 | > 99.5 µM |
| O=C(Nc1ccc2c(c1)CNC2)c1cc2ncccc2s1 | > 100 | > 99.5 µM |
| N#Cc1ccc(C(=O)Nc2ccc3c(c2)CNC3)cc1Cl | > 100 | > 99.5 µM |
| COC(=O)C(C)(C)NC(=O)[C@H](Nc1ccc2c(c1)CNC2)c1cc(Cl)cc(C2CC2)c1 | > 100 | > 99.5 µM |
| Cc1[nH]c2ccccc2c1[C@H]1CCN(C(=O)Nc2ccc3c(c2)CNC3)C1 | > 100 | > 99.5 µM |
| O=C1COc2cc(C(=O)Nc3ccc4c(c3)CNC4)ccc2N1 | > 100 | > 99.5 µM |
| O=C(Nc1ccc2c(c1)CNC2)c1cc(C(F)(F)F)nc2[nH]ccc12 | > 100 | > 99.5 µM |
| O=C(Nc1ccc2c(c1)CNC2)c1ccc(-c2cncs2)cc1 | > 100 | > 99.5 µM |
| CCOC(=O)c1ncoc1CNC(=O)[C@H](Nc1ccc2c(c1)CNC2)c1cc(Cl)cc(C2CC2)c1 | > 100 | > 99.5 µM |
| O=C(NC1CCOCC1)[C@H](Nc1ccc2c(c1)CNC2)c1cc(Cl)cc2[nH]ncc12 | > 100 | > 99.5 µM |
| O=C(Nc1ccc2c(c1)CNC2)c1cccc2sccc12 | > 100 | > 99.5 µM |
| O=C(Nc1ccc2c(c1)CNC2)c1cncc2[nH]ncc12 | > 100 | > 99.5 µM |
| O=C(Nc1ccc2c(c1)CNC2)N1CCC[C@H]1c1cc(C(F)(F)F)no1 | > 100 | > 99.5 µM |
| O=C(Nc1ccc2c(c1)CNC2)c1ccc2[nH]cnc2c1 | > 100 | > 99.5 µM |
| O=C(Nc1ccc2c(c1)CNC2)c1cc(F)c2[nH]ccc2c1 | > 100 | > 99.5 µM |
| O=C(Nc1ccc2c(c1)CNC2)c1ccnc2[nH]ccc12 | > 100 | > 99.5 µM |
| O=C(Nc1ccc2c(c1)CNC2)c1ccc2cc[nH]c2c1 | > 100 | > 99.5 µM |
| Cc1cccc(-c2nc3c(C(=O)Nc4ccc5c(c4)CNC5)cc(Cl)cc3[nH]2)c1O | 18.7 | 7.23 µM and 5.37 µM and 4.3 µM |
| O=C(Nc1ccc2c(c1)CNC2)c1cccc2[nH]c(=O)[nH]c12 | 65.3 | > 99.5 µM |

| SMILES | IC50 [1] [µM] | IC50 [2] |
| --- | --- | --- |
| CC[C@H]1CN(C(=O)Nc2ccc3c(c2)CNC3)C[C@@H]1c1ccc(OC)cc1 | > 100 | > 99.5 µM |
| O=C(Nc1ccc2c(c1)CNC2)c1ncnc2[nH]ccc12 | > 100 | > 99.5 µM |
| NCc1cc(Cl)cc(C(=O)Nc2ccc3c(c2)C(=O)OC3)c1 | > 100 | > 99.5 µM |
| O=C(Nc1ccc2c(c1)CNC2)c1cc(Cl)cc2[nH]c(-c3ncnn3C3CC3)nc12 | > 100 | > 99.5 µM |
| O=C(Nc1ccc2c(c1)CNC2)c1c(Cl)ccc2c1OCO2 | > 100 | > 99.5 µM |
| CC(C)CNC(=O)[C@H](Nc1ccc2c(c1)CNC2)c1cc(Cl)cc2[nH]ncc12 | > 100 | > 99.5 µM |
| CC(=O)Nc1cccc(C(=O)Nc2ccc3c(c2)CNC3)n1 | > 100 | > 99.5 µM |
| CC(C)(C)NC(=O)[C@H](Nc1ccc2c(c1)CNC2)c1cc(Cl)cc(C2CC2)c1 | > 100 | > 99.5 µM |
| CCc1cnccc1-c1nc2c(C(=O)Nc3ccc4c(c3)CNC4)cc(Cl)cc2[nH]1 | > 100 | > 99.5 µM |
| CCOCCNC(=O)[C@H](Nc1ccc2c(c1)CNC2)c1cc(Cl)cc2[nH]ncc12 | > 100 | > 99.5 µM |
| O=C(Nc1ccc2c(c1)CNC2)N1CCC[C@H](Cc2nccs2)C1 | > 100 | > 99.5 µM |
| CCCNC(=O)[C@H](Nc1ccc2c(c1)CNC2)c1cc(Cl)cc2[nH]ncc12 | > 100 | > 99.5 µM |
| CC1(C)C(=O)Nc2ccc(C(=O)Nc3ccc4c(c3)CNC4)cc21 | > 100 | > 99.5 µM |
| O=C(Nc1ccc2c(c1)CNC2)c1ccc2ncsc2c1 | > 100 | > 99.5 µM |
| O=C1Cc2c(cccc2C(=O)Nc2ccc3c(c2)CNCCC3)N1 | 90.1 | > 99.5 µM |
| CNC(=O)[C@H](Nc1ccc2c(c1)C(=O)OC2)c1cc(Cl)cc2[nH]ncc12 | > 100 | > 99.5 µM |
| O=C(Nc1ccc2c(c1)CNC2)c1cc(Cl)cc2[nH]c(C3(n4ccnn4)CC3)nc12 | > 100 | > 99.5 µM |
| O=C(Nc1ccc2c(c1)CNC2)c1cccc2[nH]cnc12 | > 100 | > 99.5 µM |
| O=C(Nc1ccc2c(c1)CNC2)c1ccc2[nH]ccc2c1 | > 100 | > 99.5 µM |
| C[C@H](C1CC1)n1ncc2c(C(=O)Nc3ccc4c(c3)CNC4)cc(C3CC3)nc21 | > 100 | > 99.5 µM |
| Cn1cc2c(C(=O)Nc3ccc4c(c3)CNC4)cccc2n1 | > 100 | > 99.5 µM |
| Cc1csc(CO[C@H]2CCN(C(=O)Nc3ccc4c(c3)CNC4)C2)n1 | > 100 | > 99.5 µM |
